Here are results for 3 molecules from patent publication US20160032269A1, “BUFFERS FOR USE WITH POLYMERASES” (priority 2014, published 2016).

Data set [1] deals with polymerase derived from two parental polymerases, Pfu and DeepVent, and fused with an Sso7d. Kind of data set: Effect of surfactant additives on PCR yield (agarose gel). The format is biochemical. The settings on record: for PCR yield: additive in PCR reaction mixture, 20 ng template DNA, FIG. 1. The method, then:
The effect of various surfactants on polymerase activity and yield in a PCR reaction mixture was tested. A polymerase derived from two parental polymerases, Pfu and DeepVent, and fused with an Sso7d, was formulated in a variety of reaction mixtures in an effort to identify reaction components that improve PCR yield.
A reaction mixture comprising polymerase, Tris-HCL pH 9.0, KCl, ammonium sulfate, 20 ng template DNA and target primers was tested with one or more additional components added as follows (results shown in FIG. 1):
Ranges of concentration of CTAB and SDS were tested and additional components such as octyl b-D-glucopyranoside (OGP) and bovine serum albumin (BSA) were also tested. See, FIG. 2. The lanes of FIG. 2. are described in Table 2 below:
(§1) In view of the surprising success of the reaction mixture comprising SDS and CTAB, a 5× stock solution was generated.

A short description of data set [2]: Precipitate formation in 5× stock solution. The format is physicochemical.
Excerpt: as §1

Molecules are shown by their SMILES. Entries after “also recorded” stand apart in the source; their conditions may differ.

Regarding `C[C@H](CCC(=O)NCCC[N+](C)(C)CCCS(=O)(=O)[O-])[C@H]1CC[C@H]2[C@@H]3[C@H](O)C[C@@H]4C[C@H](O)CC[C@]4(C)[C@H]3C[C@H](O)[C@]12C` [CHAPS, 3-[(3-cholamidopropyl)dimethylammonio]-1-propanesulfonate], in data set [1] (CHAPS in 5× stock solution used in PCR reactions, data not shown), the “interference with PCR” value is “did not interfere with PCR”. Moreover, the “precipitate in stock solution” value was “no precipitate was observed” in data set [2] (5× stock solution contained 1% CHAPS) and “prevented formation of a precipitate” in data set [2] (CHAPS added to the 5× stock solution).

As to `CCCCCCCCCCCCCCCC[N+](C)(C)C.[Br-]` [CTAB, cetyl trimethylammonium bromide], the PCR yield entry in data set [1] is “did not improve PCR yield; also recorded: does not provide any apparent benefit”.

As for `CCCCCCCCCCCCOS(=O)(=O)[O-].[Na+]` [SDS, sodium dodecyl sulfate], the PCR yield result in data set [1] (sulfate) is “did not improve PCR yield; also recorded: does not provide any apparent benefit”.
